The numbers were not newly measured in patent publication US20210145036A1 (priority 2018, published 2021), which cites them from elsewhere.

The conditions of the series: in vivo.

For “(1S,5S)-2,6,6-Trimethylbicyclo[3.1.1]hept-2-ene ((−)-α-Pinene)”, the human pulmonary uptake was 60%.
